In patent US20260306640A1, “TECHNOLOGIES TARGETING CELL STATES” (Auron Therapeutics, Inc., priority 2023, published 2026):
“Also recorded” adds a separate entry of the source.

Test system: NCI-H1048 human lung cancer xenograft
Experiment: NCI-H1048 human lung cancer xenograft model, tumor growth inhibition (BALB/c nude mice)
Assay type: in vivo, mouse (BALB/c nude); human tumor cells
Details: FIG. 1
Source text: Among other things, provided technologies are useful for treating various diseases, disorders, or conditions. For example, in some embodiments, provided technologies are useful for treating cancer as confirmed in the present Example. In some embodiments, the present disclosure provides technologies for assessing various technologies, e.g., compounds, compositions, or methods. Among other things, the present Example provides technologies, e.g., xenograft model, for assessing various technologies. In some embodiments, provided technologies are assessed in tumor xenograft model. In some embodiments, provided technologies are assessed in NCI-H1048 human lung cancer xenograft model. […]
As described herein, various provided technologies are assessed in cancer xenograft models. […] A number of doses were assessed including 30 mg/kg. Assessed compounds were administered orally or via the intraperitoneal route. […]
Cell culture: NCI-H1048 tumor cells are maintained in vitro as monolayer culture in HITES Medium supplemented with 5% fetal bovine serum at 37° C. in an atmosphere of 5% CO2 in air. […] The cells growing in an exponential growth phase are harvested and counted for tumor inoculation. […]
Measurement Parameters: For routine monitoring, animals are monitored for tumor growth, behavior (e.g., mobility, food and water consumption), body weight (BW), eye/hair matting and other effects. […]

With CN1C[C@H](Nc2cnn(C)c(=O)c2Br)C[C@H](c2ccc(C(=O)N3CCC(CN4CCN(c5ccc6c(c5)CN(C5CCC(=O)NC5=O)C6=O)CC4)CC3)cc2)C1 (stereo partly drawn) [Compound 22, 3-(5-(4-((1-(4-((3R,5R)-5-((5-bromo-1-methyl-6-oxo-1,6-dihydropyridazin-4-yl)amino)-1-methylpiperidin-3-yl)benzoyl)piperidin-4-yl)methyl)piperazin-1-yl)-1-oxoisoindolin-2-yl)piperidine-2,6-dione] the “tumor growth inhibition in vivo” value was “tumor growth inhibition in vivo; also recorded: inhibit cell growth in vitro and in vivo”.
